Results taken from patent US11352637B2, “Methods and compositions for herbicide tolerance in plants” (MONSANTO TECHNOLOGY LLC, priority 2017, dated 2022).

Tests used:
[1] = test system: KsIAA16R in combination with KsAFB6; assay: Yeast two-hybrid (Y2H) assay: KsIAA16R binding with KsAFB6 in presence of auxin; parameters: species or system Kochia scoparia; settings: for Interaction between KsIAA16R and KsAFB6 in the presence of the auxin: at the concentrations tested; for Ability of KsIAA16R to interact with KsAFB6 in the presence of the auxin: only the higher concentration could facilitate binding
Method: (§1) Yeast two-hybrid (Y2H) studies were conducted using the Matchmaker® Gold Yeast Two-Hybrid System: vectors, transformation protocols and yeast strains (Clonetech Laboratories, Inc.). The coding sequences for the KsIAA16R (SEQ ID NO: 220), KsIAA16S (SEQ ID NO: 218), KsTIR1 (SEQ ID NO: 285), KsAFB6 (SEQ ID NO: 287), KsAFB2 (SEQ ID NO: 289), and KsAFB5 (SEQ ID NO: 291) were PCR amplified using primers specified in Table 2.
(§2) PCR products were gel purified and recombined into NdeI/NotI digested pGADT7 or pGBKT7 vectors using the In-Fusion® cloning system (Clonetech Laboratories, Inc.). The pGBKT7 vector contained the GAL4 DNA binding domain, rendering the fusions as the “bait,” whereas the “prey” were the fusions containing the pGADT7 vector, which contained the GAL4 activation domain. All vectors were first sequence verified and then the listed vector combinations were co-transformed into the yeast strain, Y2HGold. […] Transformants were plated on SC-Trp-Leu plates to select for those containing both plasmids. Four healthy colonies were selected at random and resuspended into 300 μL of 0.1% agar in water. Five μL of this dilution was replica spotted onto each plate. Plates were incubated at 30° C. for 3 days prior to evaluation of colony growth.
(§3) This method enabled the study of the binding/interaction of the Kochia R and S alleles of KsIAA16 with each of the Kochia TIR/AFB homologs (KsTIR1 (SEQ ID NO: 285), and KsAFB6 (SEQ ID NO: 287)) in the absence or presence of 100 μM or 500 μM exogenous concentrations of IAA, NAA, dicamba, and 2,4-D, picloram, triclopyr, quinclorac, fluroxypyr or phenylacetic acid (PAA).

[2] = test system: KsIAA16 (R and S alleles) with KsTIR1 and/or KsAFB6; assay: Y2H assay, summary statements over the protein combinations tested; format: binding, Kochia scoparia; settings: for Facilitation of interaction of KsIAA16R with KsTIR1 and/or KsAFB6: at the concentrations tested; for Y2H interaction in the presence of the auxin: any of the protein combinations tested
Method: as §1, §2, §3

[3] = test system: KsIAA16R in combination with KsTIR1; assay: Yeast two-hybrid (Y2H) assay: KsIAA16R binding with KsTIR1 in presence of auxin; parameters: species or system Kochia scoparia; settings: compared with KsIAA16S; concentration not given
Method: as §1
(§4) PCR products were gel purified and recombined into NdeI/NotI digested pGADT7 or pGBKT7 vectors using the In-Fusion® cloning system (Clonetech Laboratories, Inc.). The pGBKT7 vector contained the GAL4 DNA binding domain, rendering the fusions as the “bait,” whereas the “prey” were the fusions containing the pGADT7 vector, which contained the GAL4 activation domain. All vectors were first sequence verified and then the listed vector combinations were co-transformed into the yeast strain, Y2HGold. […] Transformants were plated on SC-Trp-Leu plates to select for those containing both plasmids. Four healthy colonies were selected at random and resuspended into 300 μL of 0.1% agar in water. Five μL of this dilution was replica spotted onto each plate. Plates were incubated at 30° C. for 3 days prior to evaluation of colony growth. […]

R and S Kochia biotypes = assay: Greenhouse spray test for cross-resistance of Kochia R-biotype; format: in vivo, Kochia scoparia; settings: all treatments, track sprayer, 10 to 15 cm tall plants
Source text: To elucidate whether the Kochia R-biotype is cross resistant to 2,4-D or fluroxypyr, greenhouse grown 10 to 15 cm tall Kochia plants were sprayed with either Dicamba at 0,140, 280, 560, 2240, 4480, 6720, 8960, or 17920 g a.e.ha^−1; 2,4-D at 0, 70, 140, 280, 560, 1120, 2240, 4480, 6720, 8960 g a.e.ha^−1 or fluroxypyr at 0, 17.5, 35, 70, 140, 280, 420, 560, 1120, 2240 g a.e.ha^−1 with a track sprayer. […]

[4] = test system: seedlings of the R and S Kochia biotypes; assay: Root elongation response of Kochia seedlings; format: in vivo, Kochia scoparia; settings: for Root elongation inhibition of the R Kochia biotype: R biotype seedlings, FIG. 5
Method: The root elongation response of seedlings from the R and S Kochia biotypes was tested to determine if the R biotype response was consistent with the Y2H findings. For root elongation studies, plant nutrient media was used, with 0.5% sucrose. Seeds were surface sterilized in 30% bleach with 0.1% Triton-X100 for 10 to 30 minutes, then rinsed twice in sterile water and resuspended in 0.1% agar for plating. Root lengths were measured to the nearest millimeter, and the average root length of 12 individuals was calculated unless otherwise noted.

[5] = test system: KsIAA16S in combination with KsAFB6; assay: Yeast two-hybrid (Y2H) assay: KsIAA16S binding with KsAFB6 in presence of auxin; parameters: species or system Kochia scoparia; settings: allele KsIAA16S; auxin 500 μM; yeast colony growth
Method: as §1, §4

[6] = test system: transgenic Arabidopsis carrying AtIAA16P:KsIAA16 constructs; assay: Root elongation inhibition assay of T2 transgenic Arabidopsis on plant nutrient plus IAA or dicamba; format: in vivo, Arabidopsis thaliana
Source text: To determine if the presence of the KsIAA16R allele alone was necessary and sufficient to confer dicamba resistance, several transgene expression constructs were generated for study of KsIAA16 in Arabidopsis. Agrobacterium tumefaciens was used to introduce the binary vectors in the plants using the floral dip method (Clough and Bent, 1998). Vectors contained either the ethanol inducible alcA promoter elements (Salter et al., 1998), the constitutive CaMV35S promoter, or the native Arabidopsis IAA16 promoter (AtIAA16P) driving either KsIAA16R (SEQ ID NO: 220) or KsIAA16S (SEQ ID NO: 218). GUS reporter constructs contained a 2.5 kb genomic DNA fragment from directly upstream of KsIAA16, which is expected to contain most of the promoter elements as well as the 5′UTR, driving uidA. All constructs contained either a Spectinomycin resistance gene (SPEC) or a glufosinate resistance gene (BAR) in the T-DNA region to serve as the selectable marker. For all constructs, T1 seed was harvested, surface sterilized, and plated on the appropriate selective media to identify independent T1 transformants. Single seed decent and segregation on selective media was used to estimate transgene insertion number and identify homozygous lines. For induction of the P-Alc promoter, ethanol was added to a final concentration of 0.01% just before plates were poured, and plates were used immediately. All plates were grown in a Percival growth chamber (Percival Scientific, Inc.) at 22° C. with 16 hour day/8 hour night light cycle and a light intensity of […]. Relative humidity was maintained at 50%. GUS assays were performed according to standard protocols. Briefly, a 20 mg/mL X-Gluc (GoldBio, St. Louis, Mo.) stock in dimethylformamide was diluted into 50 mM phosphate buffer, pH 7.0, to a final concentration of 1 mg/mL. This solution was added to plant tissues, and samples were placed under vacuum for 5 minutes to ensure penetration of the solution into the tissues. Samples were covered in foil to prevent light entry and place at 37° C. for 24 hours to allow color development. Staining solution was removed and chlorophyll was cleared by incubating samples in 50% ethanol for several hours.

O=C(O)COc1ccc(Cl)cc1Cl [2,4-D, 2,4-dichlorophenoxyacetic acid]
Interaction between KsIAA16R and KsAFB6 in the presence of the auxin [1]: not observed | Facilitation of interaction of KsIAA16R with KsTIR1 and/or KsAFB6 [2]: cannot | Ability of KsIAA16R to interact with KsTIR1 in the presence of the auxin [3]: decreased ability to interact | Visible injury at 14 days after treatment (DAT) (R and S Kochia biotypes): observed | Root elongation inhibition of the R Kochia biotype [4]: resistant

Nc1c(Cl)c(Cl)nc(C(=O)O)c1Cl [Picloram, 4-amino-3,5,6-trichloro-2-pyridinecarboxylic acid]
Interaction between KsIAA16R and KsAFB6 in the presence of the auxin [1]: not observed | Facilitation of interaction of KsIAA16R with KsTIR1 and/or KsAFB6 [2]: cannot | Ability to bind in combination with KsAFB6 [5]: observed to interact

O=C(O)Cc1ccccc1 [PAA, phenylacetic acid]
Y2H interaction in the presence of the auxin [2]: No interaction | Effect on root elongation ([4]; Kochia seedlings, biotype not stated): had an effect on root elongation

O=C(O)Cc1c[nH]c2ccccc12 [IAA, indole-3-acetic acid]
Ability of KsIAA16R to interact with KsAFB6 in the presence of the auxin [1]: reduced ability to interact | Facilitation of interaction of KsIAA16R with KsTIR1 and/or KsAFB6 [2]: can facilitate some interaction | Root Length (in mm) of T2 transgenics on plant nutrient plus auxin ([6]; line AtIAA16P:KsIAA16R_T2-1, +5 μM auxin): 12.17 ± 1.01 mm | Root Length (in mm) of T2 transgenics on plant nutrient plus auxin ([6]; line AtIAA16P:KsIAA16R_T2-2, +5 μM auxin): 18.17 ± 3.09 mm | Root Length (in mm) of T2 transgenics on plant nutrient plus auxin ([6]; line AtIAA16P:KsIAA16R_T2-3, +5 μM auxin): 22.75 ± 2.09 mm | Root Length (in mm) of T2 transgenics on plant nutrient plus auxin ([6]; line AtIAA16P:KsIAA16R_T2-4, +5 μM auxin): 27.25 ± 1.88 mm | Root Length (in mm) of T2 transgenics on plant nutrient plus auxin ([6]; line AtIAA16P:KsIAA16S_T2-1, +5 μM auxin): 7.0 ± 0.77 mm | Root Length (in mm) of T2 transgenics on plant nutrient plus auxin ([6]; line AtIAA16P:KsIAA16S_T2-2, +5 μM auxin): 9.5 ± 0.84 mm | Root Length (in mm) of T2 transgenics on plant nutrient plus auxin ([6]; line AtIAA16P:KsIAA16S_T2-3, +5 μM auxin): 5.67 ± 0.54 mm | Root Length (in mm) of T2 transgenics on plant nutrient plus auxin ([6]; line AtIAA16P:KsIAA16S_T2-4, +5 μM auxin): 5 ± 0.34 mm | Root Length (in mm) on plant nutrient plus auxin ([6]; non-transgenic WT, +5 μM auxin): 5.83 ± 0.24 mm | Resistance to root inhibition ([6]; several lines from both constructs): slight resistance | Root elongation inhibition of the R Kochia biotype [4]: remained sensitive

O=C(O)c1c(Cl)ccc2cc(Cl)cnc12 [Quinclorac, 3,7-dichloro-8-quinolinecarboxylic acid]
Interaction between KsIAA16R and KsAFB6 in the presence of the auxin [1]: not observed | Facilitation of interaction of KsIAA16R with KsTIR1 and/or KsAFB6 [2]: cannot | Ability to bind in combination with KsAFB6 [5]: observed to interact

O=C(O)Cc1cccc2ccccc12 [NAA, 2-(1-naphthyl) acetic acid]
Ability of KsIAA16R to interact with KsAFB6 in the presence of the auxin [1]: reduced ability to interact | Facilitation of interaction of KsIAA16R with KsTIR1 and/or KsAFB6 [2]: can facilitate some interaction | Root elongation inhibition of the R Kochia biotype [4]: remained sensitive

Nc1c(Cl)c(F)nc(OCC(=O)O)c1Cl [Fluroxypyr, 4-amino-3,5-dichloro-6-fluoro-2-pyridyloxyacetic acid]
Y2H interaction in the presence of the auxin [2]: No interaction | Facilitation of interaction of KsIAA16R with KsTIR1 and/or KsAFB6 [2]: cannot | Visible injury at 14 days after treatment (DAT) (R and S Kochia biotypes): observed
